From ChEMBL document CHEMBL1150630, “Oxidation, reduction, and methylation of carnosic acid by Nocardia” (J Nat Prod, 2002)

tested on: Radical scavenging activity; assay: Antioxidant activity assessed as DPPH free radical scavenging activity after 30 mins; type: functional

SMILES	IC50 [µM]
O=C1O[C@H]([C@@H](O)CO)C(O)=C1O [ASCORBIC ACID]	66.8
CC(C)c1cc2c(c(O)c1O)[C@@]1(C(=O)O)CCCC(C)(C)[C@@H]1CC2 [CARNOSIC ACID]	53.3
COc1c(C(C)C)cc2c(c1O)[C@@]1(CO)CCCC(C)(C)[C@@H]1CC2	83.4
CC(C)c1cc2c(c(O)c1O)[C@@]13CCCC(C)(C)[C@@H]1C[C@@H]2OC3=O [CARNOSOL]	114
CCCOC(=O)c1cc(O)c(O)c(O)c1 [PROPYL GALLATE]	46.1
CC1(C)CCC[C@@]23C(=O)OC(C[C@@H]12)c1cc(C(CO)CO)c(O)c(O)c13	66
Oc1cccc(O)c1O [PYROGALLOL]	37.8
